The data set is described as follows: Stability of polymorphs: stirring in dimethyl carbonate, crystals characterised by DSC and pXRD. The following applies: stirred in 5 ml dimethyl carbonate for two days, crystals isolated, air dried. Format: physicochemical. On the procedure: Powder X-ray diffraction analysis of solid material was carried out using the Bruker D8 powder diffractometer at room temperature and at relative humidities above 40%. Samples were mounted in Perspex sample holders and the samples flattened. The sample holder was rotated and X-rays were collected from 4° to 34° 2-theta, with a scan time of 25 to 30 minutes depending on the pattern intensity.
DSC was carried out using a Mettler Toledo DSC1. A sample loading of around 5 mg was used and this was heated from 25° C. to 160° C. at a rate of 10° C./minute. The lid of the DSC crucible was pierced to allow the escape of any gas formed during the heating of the sample.
A sample of the polymorph designated Form A(c) was stirred in 5 ml dimethyl carbonate for two days. The crystals were isolated, air dried and characterised by DSC and pXRD.
Background: In DSC, transitions show as peaks or steps in heat flow.

Consider `CCN1OC[C@@H](NC(=O)c2ccc(C3=NO[C@@](c4cc(Cl)c(F)c(Cl)c4)(C(F)(F)F)C3)cc2C)C1=O` [Form A(c)], for which the “Polymorphic stability (solid form found after stirring)” value is recorded as “all of the Form A(c) had converted into Form (A)a”.

For the origin of these results see patent publication US11104672B2, “Polymorphs” (Syngenta Participations AG, priority 2017, dated 2021).
